# Source: PMC8400343, “Synthesis and Evaluation of the Antidepressant-like Properties of HBK-10, a Novel 2-Methoxyphenylpiperazine Derivative Targeting the 5-HT1A and D2 Receptors” (Pharmaceuticals, 2021)
# Structures can show the parent of a compound that is named as a salt. Where two headings read alike, the source gives them in different places. Marks after values point to notes of the source that are not given here.
# Key:
# [1] = test system: mice; assay: Forced swim test in naive mice; assay type: in vivo, mouse; conditions: alone
# Method: Adult male Albino-Swiss mice (CD-1, 8 weeks old, 18–21g: Jagiellonian University Medical College, Krakow, Poland) were used in all experiments. Unless stated otherwise, the animals were kept in groups of 10 mice in standard cages (37 cm × 21 cm × 15 cm) at a room temperature (22 ± 2 °C), on a 12 h light/dark cycle (lights on 7:00) with ad libitum access to food and water. Mice were used only once in each test. Behavioral experiments were performed between 8 am and 4 pm and evaluated by a trained observer blind to the treatments. Mice were handled for 1 week before starting the experimental procedures. Animals were randomly allocated to the treatment using a computer-generated sequence, and researchers making measurements on the animals or analyzing the results were blind to the allocation. Moreover, experimental groups were distributed across multiple cages, and the location of the mouse cages in the room was changed following each day.
# HBK-10, WAY-100635 (Sigma, Darmstadt, Germany), p-chlorophenylalanine (pCPA; Sigma, Darmstadt, Germany), fluoxetine (Sigma, Darmstadt, Germany), reboxetine (Sigma, Darmstadt, Germany) and bupropion (Sigma, Darmstadt, Germany), were suspended in 1% Tween, and administered ip at a volume of 10 mL/kg 30 min before each behavioral test. The control groups received saline ip 30 min prior to testing. The doses of fluoxetine, reboxetine and bupropion as well as WAY-100635 and pCPA were based on our previous studies with 2-methoxyphenylpiperazine derivatives.
# (§1) The experiment was performed on mice according to the method described by Porsolt et al. and as previously described. Mice were placed individually in glass cylinders (height 25 cm, diameter 10 cm) filled with water at 24 ± 1 °C to a depth of 10 cm and left there for 6 min. Following a 2 min habituation period, total time spent immobile was recorded during the next 4 min. The animal was considered as immobile when it remained floating passively in the water, making only small movements to keep its head above the water. The experiments were video-recorded and scored using elevenmaze.com software by a trained observer blind to the treatments.
# To assess the involvement of a serotonergic system in the antidepressant-like activity of tested compounds in the forced swim test, the mice were pretreated with pCPA (tryptophan hydroxylase inhibitor) according to the method previously described. […]. Twenty-four hours after the last pCPA administration, we injected mice with 1% Tween ip or tested compound. We performed the forced swim test 30 min after the administration.
# The putative involvement of 5-HT1A receptors in the antidepressant-like effect of tested compound was studied using WAY-100635 (a selective 5-HT1A receptor antagonist). WAY-100635 at a dose of 0.1 mg/kg was administered sc 15 min prior to the injection of HBK-10. After 30 min the forced swim test was performed. The behaviorally ineffective dose of WAY-100635 used in the experiments was based on our previous experiments.
# [2] = test system: serotonin level; parameters: method as in PMID 9044239; conditions: 3-day treatment with pCPA; cited from earlier work
# [3] = MLMs, cited from earlier work; for % Remaining after 30 min: protein concentration 0.5
# [4] = target: 5-HT1A; parameters: method as in PMID 10073136; conditions: cited from earlier work
# [5] = target: 5-HT2A; parameters: method as in PMID 10073136; conditions: cited from earlier work
# [6] = target: α1-adrenoceptor; parameters: method as in PMID 10073136; conditions: cited from earlier work
# [7] = test system: mice; conditions: i.p.; cited from earlier work
# [8] = test system: mice; conditions: i.p.; cited from earlier work; remark: listed apart in the source
# [9] = target: voltage-sensitive calcium channels (Cav); parameters: method as in PMID 10073136; conditions: read-out: Ki Cav [3H]-nitrendipine; cited from earlier work
# [10] = test system: corticosterone-treated mice; assay: Forced swim test in corticosterone-induced mouse model of depression; assay type: in vivo; conditions: fluoxetine 15 mg/kg ip, chronic (3 weeks)
# Method: as §1
# (§2) Mice were injected with corticosterone (sc, 20 mg/kg) at random times during the light phase for 21 days. The dose and route of administration of corticosterone were based on our previous study. Control mice received saline containing 0.1% dimethyl sulfoxide (DMSO) and 0.1% Tween (sc). For the next 21 days, 30 min before the corticosterone injection, mice were injected with saline, HBK-10 (0.625 or 1.25 mg/kg), or fluoxetine (15 mg/kg) (ip). Twenty-four hours after the last injection, animals were tested in the forced swim test and locomotor activity test (Figure 8).
# [11] = test system: corticosterone-treated mice; assay: Locomotor activity in corticosterone-treated mice; assay type: in vivo, mouse; conditions: 15 mg/kg ip chronic, 4 min
# Method: The locomotor activity of mice was measured as previously described. We used photoresistor actometers (Ugo Basile, Italy) connected to a counter for the recording of light-beam interruptions. Mice were placed individually in cages for 30 min, and the number of crossings of the light beams was recorded as the locomotor activity for 4 min.
# as §2
smiles,measurement,setting,value
"N[C@@H](Cc1ccc(Cl)cc1)C(=O)O (racemic) [pCPA, p-chlorophenylalanine]",Effect on immobility in the forced swim test,[1]; pCPA 200 mg/kg ip once daily for three days,had no effect on the immobility
same,Reduction of serotonin level in midbrain,[2],24%
same,Reduction of serotonin level in the cortical regions,[2],around 30%
O=C1CCc2ccc(OCCCCN3CCN(c4cccc(Cl)c4Cl)CC3)cc2N1 [Aripiprazole],t1/2,[3]; protein concentration 1.0,217 ^b min
O=C1CC2(CCCC2)CC(=O)N1CCCCN1CCN(c2ncccn2)CC1 [Buspirone],% Remaining after 30 min,[3],0.29 ^a %
same,% Remaining after 30 min,[3]; listed as buspirone,lower than 1%
"COc1ccccc1N1CCN(CCCOc2c(C)cccc2C)CC1 [Compd. I, 1-[3-(2,6-dimethylphenoxy)propyl]-4-(2-methoxyphenyl)piperazine hydrochloride]",Ki,[4],4.9 nM
same,Ki,[5],192 nM
same,Ki,[6],2.1 nM
"CC[C@@H](CO)NCCOc1c(C)cccc1C [Compd. II, (S)-{2-[(2-(2,6-dimethylphenoxy)ethyl]amino}butan-1-ol hydrochloride]",MES ED50,[7],7.57 mg/kg
same,Rotarod test TD50,[8],34.45 mg/kg
same,Ki,[9],18000 nM
"CNCCC(Oc1ccc(C(F)(F)F)cc1)c1ccccc1 (stereo not drawn) [Fluoxetine, reference compound]",Decrease of immobility in the forced swim test in corticosterone-treated mice,[10],32%
same,Number of Crossings ± SEM,[11],462.5 ± 41.81
"COc1ccccc1N1CCN(CCN(C(=O)C2CCCCC2)c2ccccn2)CC1 [WAY-100635, reference compound]",Effect on immobility in the forced swim test,[1]; WAY-100635 0.1 mg/kg sc,had no effect on the immobility
